Test results taken from patent US4717716A, “Immuno-regulator” (Nihon University, priority 1985, dated 1988).
Where “and” joins values, the source holds several entries; their conditions need not be identical. Equal values may be shown once.

Experiments:
[1] = test system: male DDY mouse sensitized with picryl chloride; test: Delayed hypersensitivity reaction (picryl chloride contact dermatitis); format: in vivo; conditions: for Increase of Ear control %: 0 mg/kg/day = 100; for Thickness × 10^-3cm Increase of Ear: 1% picryl chloride, average of 8 mice ± S.D.
From the text: A male DDY mouse of 5 weeks are weighing about 20 g was used to detect its contact dermatitis by means of 2, 4, 6-trinitro-chlorobenzene (picryl chloride) (available from Tokyo Chemical Industry Co., Ltd). An ethanol solution of 1% picryl chloride was impregnated into 4-layered gauge (1×1 cm), which was then contacted with a shaved abdomen of the mouse for 10 seconds to cause primary sensitization. The secondary sensitization for test was caused on seventh day by applying an olive oil solution of 1% picryl chloride on both surfaces of one ear by means of a paint brush. The other ear had applied only olive oil as a control. After 24 hours, the mouse was anesthetized with ether, and thickness of the ear was determined in the order of 1/100 mm by a micrometer having precision of 1/100 mm. The delayed hypersensitivity reaction was calculated as follows: […]
(Thickness of Ear Applied with Picryl Chloride after 24 Hours--Thickness of Ear before Application) minus (Thickness of Ear Applied with Olive Oil After 24 Hours--Thickness of Ear before Application).
L-carnosine was administered subcutaneously in the indicated amount for 14 days. On the 7th day, sensitization was conducted by 1% picryl chloride, and examination was carried out on 7 days later. Values are shown in an average of 8 mices ±S.D.

DDY male mouse = test: Acute toxicity of L-carnosine in mice; format: in vivo
Protocol: L-carnosine was administered peritoneally or orally in different amounts to a group of 10 mice and acute toxic symptoms were observed 5 hours after administration. […] L-carnosine was dissolved in a physiological saline so as to give a dose of 0.1 to 0.3 ml/10 g.

[2] = test system: anti-SRBC antibody in serum of mice immunized with SRBC; test: Determination of serum antibody value (hemagglutination titer, HA-titer); format: in vivo, mouse; conditions: for Anti-SRBC Antibody Value N: maximal positive dilution 2^N
Protocol: Blood was collected in the PFC reaction from carotid arteries of a group of five mice, from which was separated a serum in a conventional manner for determination of hemagglutination titer (HA-titer). The test serum was diluted with a phosphate buffered saline (PBS) containing 0.5-1% of a serum from a normal rabbit, and was evaluated using SRBC. The maximal dilution showing positive reaction was represented by 2^N, wherein N represents an antibody value.

[3] = test system: plaque-forming cells of DDY mouse immunized with sheep red blood cells (SRBC); test: PFC method (hemolytic plaque-forming cells) in mice immunized with SRBC; format: in vivo; conditions: for PFC Number per g. Spleen: 4 days after immunization; for PFC reaction: mouse of 5 weeks age, 2.5×10^8 SRBC
[4] = formulated by LISA corporation in Spain since 10 years; cited from earlier work
[5] = Physicochemical properties of L-carnosine
[6] = 50 mg/kg/day subcutaneously for 14 days
[7] = 250 mg/kg/day subcutaneously for 14 days
[8] = 500 mg/kg/day subcutaneously for 14 days
[9] = SRBC antigen amount 2.5 × 10^9, 100 mg/Kg/day S.C. for six days
[10] = SRBC antigen amount 5 × 10^7, 100 mg/Kg/day S.C. for six days
[11] = mice of 2 weeks age, 100 mg/Kg/day S.C., 2.5 × 10^8 SRBC
[12] = mice of 5 weeks age, 100 mg/Kg/day S.C., 2.5 × 10^8 SRBC
[13] = mice of 30 weeks age, 100 mg/Kg/day S.C., 2.5 × 10^8 SRBC

## NCCC(=O)N[C@@H](Cc1cnc[nH]1)C(=O)O [L-carnosine, β-alanyl-L-histidine]
[1]; [6]
  Increase of Ear control %: 122.6%
  Thickness × 10^-3cm Increase of Ear: 14.1 ± 3.6 × 10^-3cm
[1]; [7]
  Increase of Ear control %: 136.5%
  Thickness × 10^-3cm Increase of Ear: 15.7 ± 2.5 × 10^-3cm
[1]; [8]
  Increase of Ear control %: 185.2%
  Thickness × 10^-3cm Increase of Ear: 21.3 ± 8.7 × 10^-3cm
[1]; doses of 50, 250 and 500 mg/Kg
  DHR with 1% picryl chloride: increasing trend of reaction
DDY male mouse; DDY male mouse
  acute toxicity, overall: very low toxicity
DDY male mouse; mouse, in vivo
  effective amount as fraction of acute toxicity LD50: 1/181
  mice killed: one of the 10
DDY male mouse; oral 15,000 mg/Kg, mice
  toxic effect of oral administration: little effect
DDY male mouse; oral, DDY male mouse, value on 72 hours
  LD50 (minimal lethal dose): > 14,930 mg/Kg
DDY male mouse; peritoneal 15,000 mg/Kg, from about 30 minutes, a half of the mice
  toxic symptoms: depression of voluntary motility, abdominal position, depression and irregularity of respiration rate
DDY male mouse; peritoneal administration, mice
  LD 100: 15,000 mg/Kg
DDY male mouse; peritoneal, DDY male mouse, value on 72 hours
  LD50 (95% confidence limit): 9,087 (8,320-9,925) mg/Kg and 9,087 mg/Kg
[2]; 25 mg/kg for 6 days, 2.5 × 10^8 SRBC
  Anti-SRBC Antibody Value N: 9
[2]; 50 mg/kg for 6 days, 2.5 × 10^8 SRBC
  Anti-SRBC Antibody Value N: 10
[2]; 250 mg/kg for 6 days, 2.5 × 10^8 SRBC
  Anti-SRBC Antibody Value N: 9
[2]; 500 mg/kg for 6 days, 2.5 × 10^8 SRBC
  Anti-SRBC Antibody Value N: 8
[2]; [9]
  Anti-SRBC Antibody Value N: 8
[2]; [10]
  Anti-SRBC Antibody Value N: 4
[2]; level of more than 500 mg/Kg
  hemagglutination reaction: subsided
[2]; [11]
  Anti-SRBC Antibody Value N: 6-7
[2]; [12]
  Anti-SRBC Antibody Value N: 9-10
[2]; [13]
  Anti-SRBC Antibody Value N: 9
[3]; 25 mg/kg
  PFC Number per Chamber: 53.0 ± 6.1
  PFC Number per Spleen: 10.7 × 10^4
[3]; 25 mg/kg for 6 days, 2.5 × 10^8 SRBC, 0 mg/kg = 100
  PFC Number per g. Spleen (%): 133%
[3]; 25 mg/kg for 6 days, 2.5 × 10^8 SRBC, mice
  PFC Number per g. Spleen: 7.6 × 10^5
[3]; 25 mg/kg, 144 h
  PFC Number per Chamber (%): 88%
  PFC Number per Spleen (%): 123%
  Weight of Spleen (%): 92%
[3]; 50 mg/kg
  PFC Number per Chamber: 73.6 ± 6.2
  PFC Number per Spleen: 14.9 × 10^4
[3]; 50 mg/kg for 6 days, 2.5 × 10^8 SRBC, 0 mg/kg = 100
  PFC Number per g. Spleen (%): 149%
[3]; 50 mg/kg for 6 days, 2.5 × 10^8 SRBC, mice
  PFC Number per g. Spleen: 8.5 × 10^5
[3]; 50 mg/kg, 144 h
  PFC Number per Chamber (%): 122%
  PFC Number per Spleen (%): 171%
  Weight of Spleen (%): 116%
[3]; 100 mg/kg
  effect on the PFC response: No effect
[3]; 100 mg/kg, 144 h
  PFC decreased: 30%
  PFC increased: 30%
[3]; 250 mg/kg
  PFC Number per Chamber: 69.8 ± 6.5
  PFC Number per Spleen: 14.6 × 10^4
[3]; 250 mg/kg for 6 days, 2.5 × 10^8 SRBC, 0 mg/kg = 100
  PFC Number per g. Spleen (%): 167%
[3]; 250 mg/kg for 6 days, 2.5 × 10^8 SRBC, mice
  PFC Number per g. Spleen: 9.5 × 10^5
[3]; 250 mg/kg, 144 h
  PFC Number per Chamber (%): 116%
  PFC Number per Spleen (%): 168%
  Weight of Spleen (%): 100%
[3]; 500 mg/kg
  PFC Number per Chamber: 64.8 ± 4.9
  PFC Number per Spleen: 8.3 × 10^4
[3]; 500 mg/kg for 6 days, 2.5 × 10^8 SRBC, 0 mg/kg = 100
  PFC Number per g. Spleen (%): 107%
[3]; 500 mg/kg for 6 days, 2.5 × 10^8 SRBC, mice
  PFC Number per g. Spleen: 6.1 × 10^5
[3]; 500 mg/kg, 144 h
  PFC Number per Chamber (%): 107%
  PFC Number per Spleen (%): 95%
  Weight of Spleen (%): 89%
[3]; 2 weeks age, 100 mg/Kg/day S.C., 2.5 × 10^8 SRBC, normal = 100
  PFC Number per g. Spleen (%): 64%
[3]; 5 weeks age, 100 mg/Kg/day S.C., 2.5 × 10^8 SRBC, normal = 100
  PFC Number per g. Spleen (%): 110%
[3]; 30 weeks age, 100 mg/Kg/day S.C., 2.5 × 10^8 SRBC, normal = 100
  PFC Number per g. Spleen (%): 177%
[3]; SRBC 2.5 × 10^9, 100 mg/Kg/day S.C. six days, normal = 100
  PFC Number per g. Spleen (%): 71%
[3]; SRBC 5 × 10^7, 100 mg/Kg/day S.C. six days, normal = 100
  PFC Number per g. Spleen (%): 119%
[3]; SRBC 5 × 10^8, 100 mg/Kg/day S.C. six days, normal = 100
  PFC Number per g. Spleen (%): 53%
[3]; [9]
  PFC Number per g. Spleen: 10.2 × 10^5
[3]; [10]
  PFC Number per g. Spleen: 5.0 × 10^5
[3]; SRBC antigen amount 5 × 10^8, 100 mg/Kg/day S.C. for six days
  PFC Number per g. Spleen: 8.2 × 10^5
[3]; immature mouse of 2 weeks age, 100 mg/Kg for 9 days
  effect on the PFC response: suppressed
[3]; [11]
  PFC Number per g. Spleen: 4.8 × 10^5
[3]; [12]
  PFC Number per g. Spleen: 12.5 × 10^5
[3]; [13]
  PFC Number per g. Spleen: 11.7 × 10^5
[3]; 50 and 250 mg/Kg for 6 days
  PFC reaction: increased
[3]; dose of more than 500 mg/Kg
  PFC reaction: subsided
[3]; old mouse of 30 weeks age, 100 mg/Kg for 9 days
  effect on the PFC response: doubly strengthened
[3]; sc
  optimum dosage for the immuno-regulatory action: 100 mg/kg/day
[3]; sc, 100 mg/kg/day, 336 h
  Weight of Spleen (%): 93%
[3]; sc, 100 mg/kg/day, 840 h
  PFC Number per Chamber (%): 107%
  PFC Number per Spleen (%): 110%
  Weight of Spleen (%): 100%
[3]; sc, 100 mg/kg/day, 5040 h
  Weight of Spleen (%): 121%
[4]
  safety in use as anorexia treating agent: confirmed to be safe
[5]
  solubility in water: readily soluble in water
